Results from patent publication US8580836B2, “Plant disease control composition and method of controlling plant disease” (Sumitomo Chemical Company, Limited, priority 2010, dated 2013).

Legend:
Format in all cases: in vivo
Phakopsora pachyrhizi [1] = assay: Test Example 5: test of effect on Phakopsora pachyrhizi on soybean, foliar spray; conditions: soybean (Natto shoryu), inoculated 14 days after spraying, lesion area of first trifoliate
Description: (§1) Based on the lesion areas in the treated plot and the non-treated plot, the effect of the treated plot was calculated according to the following formula (I). The results are shown in [Table 1]. Effect(%)=(1−(lesion area in treated plot)/(lesion area in non-treated plot))×100 formula (1)
(§2) Test of Effect on Phakopsora pachyrhizi
(§3) A plastic pot was stuffed with a soil, soybean (variety; Natto shoryu) was sown on this, and allowed to grow in a greenhouse until unfolding of the unifoliate. The present carboxamide compounds (2) and (3) and racemic N-(1,1,3-trimethylindan-4-yl)-1-methyl-3-difluoromethylpyrazole-4-carboxamide (hereinafter, referred to as racemic compound (B)) and racemic N-(1,1,3-trimethylindan-4-yl)-1,3,5-trimethylpyrazole-4-carboxamide (hereinafter, referred to as racemic compound (C)) were prepared into formulations according to Formulation Example 6, then, the formulations were diluted with water to attain a prescribed concentration, and sprayed to foliar part so as to satisfactorily adhere to the leaf surfaces of the soybean. The soybean was further cultivated at room temperature for 14 days, and grown until unfolding of the first trifoliate. The plant was inoculated with an aqueous suspension of Phakopsora pachyrhizi spores by spraying. After inoculation, the plant was allowed to stand under humid condition at 23° C. overnight, further, allowed to stand for 7 days at room temperature, then, the lesion area of the first trifoliate was checked.
Based on the lesion areas in the treated plot and the non-treated plot, the effect of the treated plot was calculated according to the above-described formula (I). The results are shown in [Table 2].

[2] = test system: Mycosphaerella graminicola (Septoria tritici); assay: Test of effect of preventing Mycosphaerella graminicola (Septoria tritici) on wheat, foliar spray; conditions: 50 ppm foliar spray; wheat (Apogee); inoculated two days after spraying
Description: The control effect was evaluated by visually observing the area of a lesion on a test plant in investigation, and comparing the area of a lesion on a plant treated with a test composition and the area of a lesion on a non-treated plant.
Test of Effect of Preventing Mycosphaerella graminicola (Septoria tritici)
A plastic pot was stuffed with a soil, wheat (variety; Apogee) was sown on this, and allowed to grow in a greenhouse for 10 days. […] After spraying, the plant was air-dried, and two days after, inoculated with an aqueous suspension of Septoria tritici spores by spraying. After inoculation, the plant was first allowed to stand under humid condition at 18° C. for 3 days, further, allowed to stand for 14 to 18 days under illumination, then, the lesion area was checked. As a result, the lesion on the plant treated with the present carboxamide compounds (1), (2) and (3) was 10% or less of the lesion area on a non-treated plant.
The same test was carried out excepting the application concentration, using racemic N-(1,1,3-trimethylindan-4-yl)-1-methyl-3-trifluoromethylpyrazole-4-carboxylic amide (hereinafter, referred to as racemic compound (A)) instead of the present carboxamide compound. As a result, the lesion area on the plant treated with 50 ppm of the racemic compound (A) was 75% or more of the lesion area on a non-treated plant.

Phakopsora pachyrhizi [3] = assay: Test Example 4: test of effect on Phakopsora pachyrhizi on soybean, foliar spray; conditions: 50 ppm; soybean (Natto shoryu); inoculated 14 days after spraying; lesion area of first trifoliate
Description: as §2
as §3, with “carboxamide” for “carboxamide compounds (2) and (3) and racemic N-(1,1,3-trimethylindan-4-yl)-1-methyl-3-difluoromethylpyrazole-4-carboxamide (hereinafter, referred to as racemic”, “compound (1) was” for “compound (B)) and racemic N-(1,1,3-trimethylindan-4-yl)-1,3,5-trimethylpyrazole-4-carboxamide (hereinafter, referred to as racemic compound (C)) were”, “cultivated in greenhouse” for “cultivated at room temperature”, “first trifolidate.” for “first trifoliate.”
as §1

SMILES | Effect [%] (Phakopsora pachyrhizi [1]; 200 ppm) | Effect [%] (Phakopsora pachyrhizi [1]; 100 ppm) | other results
CC1CC(C)(C)c2cccc(NC(=O)c3cn(C)nc3C(F)F)c21 (racemic) [Racemic compound (B), N-(1,1,3-trimethylindan-4-yl)-1-methyl-3-difluoromethylpyrazole-4-carboxamide, reference compound] | 46.7% | – | –
Cc1nn(C)c(C)c1C(=O)Nc1cccc2c1C(C)CC2(C)C (racemic) [Racemic compound (C), N-(1,1,3-trimethylindan-4-yl)-1,3,5-trimethylpyrazole-4-carboxamide, reference compound] | 76.5% | – | –
CC1CC(C)(C)c2cccc(NC(=O)c3cn(C)nc3C(F)(F)F)c21 (racemic) [racemic compound (A), N-(1,1,3-trimethylindan-4-yl)-1-methyl-3-trifluoromethylpyrazole-4-carboxylic amide] | – | – | lesion area on treated plant relative to lesion area on a non-treated plant [2]: ≥ 75%
C[C@@H]1CC(C)(C)c2cccc(NC(=O)c3cn(C)nc3C(F)(F)F)c21 [present carboxamide compound (1), (R)-(−)-N-(1,1,3-trimethylindan-4-yl)-1-methyl-3-trifluoromethylpyrazole-4-carboxamide] | – | – | Effect [%] (Phakopsora pachyrhizi [3]): 98.1%
C[C@@H]1CC(C)(C)c2cccc(NC(=O)c3cn(C)nc3C(F)F)c21 [present carboxamide compound (2), (R)-(−)-N-(1,1,3-trimethylindan-4-yl)-1-methyl-3-difluoromethylpyrazole-4-carboxamide] | 100% | 77.1% | –
Cc1nn(C)c(C)c1C(=O)Nc1cccc2c1[C@H](C)CC2(C)C [present carboxamide compound (3), (R)-(−)-N-(1,1,3-trimethylindan-4-yl)-1,3,5-trimethylpyrazole-4-carboxamide] | 100% | 98.4% | –
